target: T1, MAGL (Homo sapiens, UniProt Q99685); test: 2-AG assay (MAGL inhibitory activity, hydrolysis of 2-arachidonoylglycerol to arachidonic acid followed by mass spectrometry); type: biochemical; conditions: 8 μM 2-arachidonoylglycerol, 15 min pre-incubation, 30 min incubation at RT, RapidFire MS readout
T1 sequence (Q99685 1-303): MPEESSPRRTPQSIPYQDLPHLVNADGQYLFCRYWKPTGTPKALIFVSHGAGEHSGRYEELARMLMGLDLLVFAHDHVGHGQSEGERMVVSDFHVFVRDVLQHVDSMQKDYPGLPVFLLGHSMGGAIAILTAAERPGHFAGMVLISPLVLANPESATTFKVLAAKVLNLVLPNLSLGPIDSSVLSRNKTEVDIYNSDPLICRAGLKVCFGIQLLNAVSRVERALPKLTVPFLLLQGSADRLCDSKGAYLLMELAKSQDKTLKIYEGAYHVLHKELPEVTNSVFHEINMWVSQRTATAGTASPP
Summary of the method: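 Human MAGL ([…] final) pre-incubated 15 min at RT with compound in 50 mM TRIS, 1 mM EDTA, 0.01% Tween-20, 2.5% DMSO; 8 μM 2-AG then added for 30 min at RT. Acetonitrile quench with d8-arachidonic acid; arachidonic acid measured by RapidFire SPE–MS/MS, activity from arachidonic acid/d8 ratio.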

SMILES	IC50 [nM]
O=C(N1CC(C23CC(Cc4ccc(C(F)(F)F)nc4)(C2)C3)C1)N1CC2(CC(n3cnc(C4(O)CC4)n3)C2)C1 [Example 382, [6-[3-(1-hydroxycyclopropyl)-1,2,4-triazol-1-yl]-2-azaspiro[3.3]heptan-2-yl]-[3-[3-[[6-(trifluoromethyl)-3-pyridyl]methyl]-1-bicyclo[1.1.1]pentanyl]azetidin-1-yl]methanone]	52.4
O=C(N1CC(NCc2ccc(C(F)(F)F)cc2Cl)C1)N1CC2(CC(c3cncc(F)c3)C2)C1 [Example 514, [3-[[2-chloro-4-(trifluoromethyl)phenyl]methylamino]azetidin-1-yl]-[6-(5-fluoro-3-pyridyl)-2-azaspiro[3.3]heptan-2-yl]methanone]	88.6
CC1C(OCc2ccc(C(F)(F)F)cc2)CN1C(=O)N1CC2(CC(n3cnc(C4CC4)n3)C2)C1 (stereo not drawn) [Example 138, [6-(3-cyclopropyl-1,2,4-triazol-1-yl)-2-azaspiro[3.3]heptan-2-yl]-[2-methyl-3-[[4-(trifluoromethyl)phenyl]methoxy]azetidin-1-yl]methanone]	0.8
N#Cc1cc(C2CN(C(=O)N3CC4(CC(n5cnc(C6CC6)n5)C4)C3)C2)ccc1OC(F)(F)F [Example 39, 5-[1-[6-(3-cyclopropyl-1,2,4-triazol-1-yl)-2-azaspiro[3.3]heptane-2-carbonyl]azetidin-3-yl]-2-(trifluoromethoxy) benzonitrile]	2.4
CC(C)(C)n1cc(C2CN(C(=O)N3CC4(CC(n5cnc(C6CC6)n5)C4)C3)C2)cn1 [Example 181, [3-(1-tert-butylpyrazol-4-yl)azetidin-1-yl]−[6-(3-cyclopropyl-1,2,4-triazol-1-yl)-2-azaspiro[3.3]heptan-2-yl]methanone]	4610
O=C(N1CC2(CCN(Cc3ccc(C(F)(F)F)nc3)CC2)C1)N1CC2(CC(n3cnc(C4CC4)n3)C2)C1 [Example 464, [6-(3-cyclopropyl-1,2,4-triazol-1-yl)-2-azaspiro[3.3]heptan-2-yl]-[7-[[6-(trifluoromethyl)-3-pyridyl]methyl]-2,7-diazaspiro[3.5]nonan-2-yl]methanone]	5.05
O=C(N1CC(C#Cc2ccccc2C(F)F)C1)N1CC2(CC(n3cnc(C4CC4)n3)C2)C1 [Example 107, [6-(3-cyclopropyl-1,2,4-triazol-1-yl)-2-azaspiro[3.3]heptan-2-yl]-[3-[2-[2-(difluoromethyl)phenyl]ethynyl]azetidin-1-yl]methanone]	4.7
O=C(N1CC2(CC(n3cnc(C4(O)CC4)n3)C2)C1)N1CC2(CN(Cc3ccc(S(=O)(=O)C(F)(F)F)cc3)C2)C1 [Example 412, [6-[3-(1-hydroxycyclopropyl)-1,2,4-triazol-1-yl]-2-azaspiro[3.3]heptan-2-yl]-[6-[[4-(trifluoromethylsulfonyl)phenyl]methyl]-2,6-diazaspiro[3.3]heptan-2-yl]methanone]	7.96
CC1(Cc2nnc(-c3ccc(C4CN(C(=O)N5CC6(CC(n7cnc(C(F)(F)F)n7)C6)C5)C4)cc3)[nH]2)CC1 [Example 425, [3-[4-[5-[(1-methylcyclopropyl)methyl]-4H-1,2,4-triazol-3-yl]phenyl]azetidin-1-yl]-[6-[3-(trifluoromethyl)-1,2,4-triazol-1-yl]-2-azaspiro[3.3]heptan-2-yl]methanone]	5.55
O=C(N1CC2(CC(n3cnc(C4CC4)n3)C2)C1)N1CC2(C1)CN(S(=O)(=O)C(F)(F)F)C2 [Example 304, [6-(3-cyclopropyl-1,2,4-triazol-1-yl)-2-azaspiro[3.3]heptan-2-yl]-[2-(trifluoromethylsulfonyl)-2,6-diazaspiro[3.3]heptan-6-yl]methanone]	108
O=C(N1CC(Oc2ccc(C(F)(F)F)nc2)C1)N1CC2(CC(n3cnc(C4CC4)n3)C2)C1 [Example 270, (6-(3-cyclopropyl-1H-1,2,4-triazol-1-yl)-2-azaspiro[3.3]heptan-2-yl)(3-((6-(trifluoromethyl)pyridin-3-yl)oxy)azetidin-1-yl)methanone]	32.7
O=C(N1CC(c2ccc(NC3(C(F)(F)F)CC3)nc2)C1)N1CC2(CC(n3cnc(C4(O)CC4)n3)C2)C1 [Example 492, [6-[3-(1-hydroxycyclopropyl)-1,2,4-triazol-1-yl]-2-azaspir[3.3]heptan-2-yl]-[3-[6-[[1-(trifluoromethyl)cyclopropyl]amino]-3-pyridyl]azetidin-1-yl]methanone]	11.1
O=C(O)c1ccc(S(=O)(=O)N2CC3(CN(C(=O)N4CC5(CC(n6cnc(C7CC7)n6)C5)C4)C3)C2)cc1 [Example 324]	402
O=C(N1CC2(CC(n3cnc(C4CC4)n3)C2)C1)N1CC2(C1)CN(S(=O)(=O)c1cccc3nonc13)C2 [Example 250, [2-(2,1,3-benzoxadiazol-4-ylsulfonyl)-2,6-diazaspiro[3.3]heptan-6-yl]-[6-(3-cyclopropyl-1,2,4-triazol-1-yl)-2-azaspiro[3.3]heptan-2-yl]methanone]	15.1
O=C(N1CC2(CCC(Cc3ccc(OC(F)F)nc3)CC2)C1)N1CC2(CC(c3ccc(C(F)(F)F)nc3)C2)C1 [Example 521, [7-[[6-(difluoromethoxy)-3-pyridyl]methyl]-2-azaspiro[3.5]nonan-2-yl]-[6-[6-(trifluoromethyl)-3-pyridyl]-2-azaspiro[3.3]heptan-2-yl]methanone]	379
O=C(N1CCC(CNS(=O)(=O)c2ccc(Cl)cc2)CC1)N1CC2(CC(n3cnc(C4CC4)n3)C2)C1 [Example 271]	33.8
CCc1ncnn1C1CC2(C1)CN(C(=O)N1CC3(CC(Cc4ccc(F)cc4F)C3)C1)C2 [Example 328, [6-[(2,4-difluorophenyl)methyl]-2-azaspiro[3.3]heptan-2-yl]-[6-(5-ethyl-1,2,4-triazol-1-yl)-2-azaspiro[3.3]heptan-2-yl]methanone]	673
CS(=O)(=O)c1cc(F)ccc1OC1CCC2(CC1)CN(C(=O)N1CC3(CC(n4cnc(C5CC5)n4)C3)C1)C2 [Example 238, [6-(3-cyclopropyl-1,2,4-triazol-1-yl)-2-azaspiro[3.3]heptan-2-yl]-[7-(4-fluoro-2-mesyl-phenoxy)-2-azaspiro[3.5]nonan-2-yl]methanone]	6.5
O=C(N1CC2(CC(OCC3(C(F)(F)F)CC3)C2)C1)N1CC2(CC(n3cnc(C4CC4)n3)C2)C1 [Example 137, [6-(3-cyclopropyl-1,2,4-triazol-1-yl)-2-azaspiro[3.3]heptan-2-yl]-[6-[[1-(trifluoromethyl)cyclo-propyl]methoxy]-2-azaspiro[3.3]heptan-2-yl]methanone]	4.5
O=C(N1CC2(CC(n3cnc(C4CC4)n3)C2)C1)N1CC2(CN(Cc3ccc(C(F)(F)F)nn3)C2)C1 [Example 472, [6-(3-cyclopropyl-1,2,4-triazol-1-yl)-2-azaspiro[3.3]heptan-2-yl]-[6-[[6-(trifluoromethyl)pyridazin-3-yl]methyl]-2,6-diazaspiro[3.3]heptan-2-yl]methanone]	45.3
O=C(N1CC2(CC(n3cnc(C4CC4)n3)C2)C1)N1CC2(C1)CN(S(=O)(=O)CC(F)(F)F)C2 [Example 329, [6-(3-cyclopropyl-1,2,4-triazol-1-yl)-2-azaspiro[3.3]heptan-2-yl]-[2-(2,2,2-trifluoroethylsulfonyl)-2,6-diazaspiro[3.3]heptan-6-yl]methanone]	743
O=C(N1CC(C23CC(Cc4nnc(C5CC5)[nH]4)(C2)C3)C1)N1CC2(CC(n3cnc(C4CC4)n3)C2)C1 [Example 384, [6-(3-cyclopropyl-1,2,4-triazol-1-yl)-2-azaspiro[3.3]heptan-2-yl]-[3-[3-[(5-cyclopropyl-4H-1,2,4-triazol-3-yl)methyl]-1-bicyclo[1.1.1]pentanyl]azetidin-1-yl]methanone]	4.88
CC(C)(C)c1nc(-c2ccc(C(=O)N3CC4(CC(n5cc6c(n5)CCCC6)C4)C3)cc2)no1 [Example 12, [4-(5-tert-butyl-1,2,4-oxadiazol-3-yl)phenyl]-[6-(4,5,6,7-tetrahydroindazol-2-yl)-2-azaspiro[3.3]heptan-2-yl]methanone]	36.7
Cc1nc(C(=O)N2CC3(CC(n4cnc(C5CC5)n4)C3)C2)cnc1OCC1(C(F)(F)F)CC1 [Example 27, [6-(3-cyclopropyl-1,2,4-triazol-1-yl)-2-azaspiro[3.3]heptan-2-yl]-[6-methyl-5-[[1-(trifluoromethyl)cyclo-propyl]methoxy]pyrazin-2-yl]methanone]	26.5
CS(=O)(=O)c1ccc(CC2CC3(C2)CN(C(=O)N2CC4(CC(n5cnc(C6CC6)n5)C4)C2)C3)c(F)c1 [Example 483, [6-(3-cyclopropyl-1,2,4-triazol-1-yl)-2-azaspiro[3.3]heptan-2-yl]-[6-[(2-fluoro-4-methylsulfonyl-phenyl)methyl]-2-azaspiro[3.3]heptan-2-yl]methanone]	0.16
O=C(N1CC(c2ccc(NCC3CS(=O)(=O)C3)nc2)C1)N1CC2(CC(n3cnc(C(F)(F)F)n3)C2)C1 [Example 428, [3-[6-[(1,1-dioxothietan-3-yl)methylamino]-3-pyridyl]azetidin-1-yl]-[6-[3-(trifluoromethyl)-1,2,4-triazol-1-yl]-2-azaspiro[3.3]heptan-2-yl]methanone]	58.5
O=C(N1CC2(CC(n3cnc(C4CC4)n3)C2)C1)N1CC2(C1)CN(S(=O)(=O)C1CCCCC1)C2 [Example 224, (2-cyclohexylsulfonyl-2,6-diazaspiro[3.3]heptan-6-yl)-[6-(3-cyclopropyl-1,2,4-triazol-1-yl)-2-azaspiro[3.3]heptan-2-yl]methanone]	3

Reference: patent publication US20240199587A1, “HETEROCYCLIC COMPOUNDS” (Hoffmann-La Roche Inc., priority 2021, published 2024)
